Results on 28 compounds are retold here after US11780841B2, “3,6-methano-1H-pyrrolo[3,2-b]pyridine and 3,6-methano-1H-pyrrolo[3,2-c]pyridine compounds and medicaments using same” (priority 2018, dated 2023).

The test system of one test is recombinant rabies virus 1088 strain expressing Gaussia Luciferase (GLuc) (1088/GLuc). Format: cell-based. The conditions noted are these: read-out: Anti-rabies activity.
With `Cc1ccc(CN2C[C@H]3C[C@@]4(C(=O)NCc5ccccc5)[C@H](CC(C)C)[C@@H]2[C@@H]3CN4C(=O)NCc2ccccc2)cc1` [IF-864], the IC50 is 10 to 30 µM.
On to `CC(C)C[C@@H]1[C@@H]2[C@@H]3CN[C@@]1(C(=O)NCc1cccc(O)c1)C[C@@H]3CN2Cc1ccc(N(C)C)cc1` [IF-866], for which the IC50 was in the range of 10 to 30 µM.
Take `CC(C)C[C@@H]1[C@@H]2[C@@H]3CN[C@@]1(C(=O)NCc1ccc(O)cc1)C[C@@H]3CN2Cc1ccc(N(C)C)cc1` [IF-867]: the IC50 lay in the range of 10 to 30 µM.
As to `CC(C)CC1C2C=NC3(C(=O)NCc4ccccc4)C(C2)CN(Cc2ccc(Cl)cc2)C13` (centres unmarked) [IIB-83], the IC50 was under 5 µM.
Same read-out and setting: the same measure for `CC(C)CC1C2C=NC3(C(=O)NCc4ccccc4)C(C2)CN(Cc2cccc(Cl)c2)C13` (centres unmarked) [IIB-84]: under 5 µM; for `COc1ccc(CN2CC3CC4C=NC3(C(=O)NCc3ccccc3)C2C4CC(C)C)cc1` (centres unmarked) [IIB-85]: 5 to 10 µM; for `Cc1ccc(CN2CC3CC4C=NC3(C(=O)NCc3ccccc3)C2C4CC(C)C)cc1` (centres unmarked) [IIB-86]: 5 to 10 µM.
`CC(C)CC1C2C=NC3(C(=O)NCc4ccccc4)C(C2)CN(Cc2ccc(N(C)C)cc2)C13` (centres unmarked) [IIB-94]: the IC50 fell in the range of 5 to 10 µM.
Still for that read-out and setting: the same measure for `CC(C)CC1C2C=NC3(C(=O)NCc4ccccc4)C(C2)CN(Cc2ccc(C(C)(C)C)cc2)C13` (centres unmarked) [IIB-95]: 5 to 10 µM.
For the compound `CC(C)CC1C2C=NC3(C(=O)NCc4ccccc4)C(C2)CN(Cc2ccc(OC(F)(F)F)cc2)C13` (centres unmarked) [IIB-96], the IC50 lay within 5 to 10 µM.
For `CCOc1ccc(CN2CC3CC4C=NC3(C(=O)NCc3ccccc3)C2C4CC(C)C)cc1` (centres unmarked) [IIB-97], the IC50 was in the range of 10 to 30 µM.
The same measure, in the same setting: the value for `CC(C)CCC1C2C=NC3(C(=O)NCc4ccccc4)C(C2)CN(Cc2ccc(O)cc2)C13` (centres unmarked) [IIB-101] was 5 to 10 µM; that for `CC(C)CC1C2C=NC3(C(=O)NCc4ccc5ccccc5c4)C(C2)CN(Cc2ccccc2)C13` (centres unmarked) [IIB-102] was under 5 µM.
As to `CC(C)CCN1CC2CC3C=NC2(C(=O)NCc2ccc(Cl)cc2)C1C3CC(C)C` (centres unmarked) [IIB-103], the IC50 was in the range of 5 to 10 µM.
Same read-out and setting: the same measure for `CC(C)CCN1CC2CC3C=NC2(C(=O)NCc2ccc(F)cc2)C1C3CC(C)C` (centres unmarked) [IIB-104]: 5 to 10 µM.
For the compound `CC(C)CC1C2C3C=NC1(C(=O)NCc1ccccc1)CC3CN2Cc1ccc(Cl)cc1` (centres unmarked) [IIF-83], the IC50 was under 5 µM.
Regarding `CC(C)CC1C2C3C=NC1(C(=O)NCc1ccccc1)CC3CN2Cc1cccc(Cl)c1` (centres unmarked) [IIF-84], the IC50 lay within 5 to 10 µM.
Same read-out and setting: the value for `COc1ccc(CN2CC3CC4(C(=O)NCc5ccccc5)N=CC3C2C4CC(C)C)cc1` (centres unmarked) [IIF-85] was 5 to 10 µM; that for `Cc1ccc(CN2CC3CC4(C(=O)NCc5ccccc5)N=CC3C2C4CC(C)C)cc1` (centres unmarked) [IIF-86] was under 5 µM; that for `CC(C)CC1C2C3C=NC1(C(=O)NCc1ccccc1)CC3CN2Cc1ccc(N(C)C)cc1` (centres unmarked) [IIF-94] was 5 to 10 µM.
In the case of `CC(C)CC1C2C3C=NC1(C(=O)NCc1ccccc1)CC3CN2Cc1ccc(C(C)(C)C)cc1` (centres unmarked) [IIF-95], the IC50 was under 5 µM.
As to `CC(C)CC1C2C3C=NC1(C(=O)NCc1ccccc1)CC3CN2Cc1ccc(OC(F)(F)F)cc1` (centres unmarked) [IIF-96], the IC50 lay within 5 to 10 µM.
For the compound `CCOc1ccc(CN2CC3CC4(C(=O)NCc5ccccc5)N=CC3C2C4CC(C)C)cc1` (centres unmarked) [IIF-97], the IC50 is 10 to 30 µM.
On to `CC(C)CCC1C2C3C=NC1(C(=O)NCc1ccccc1)CC3CN2Cc1ccc(O)cc1` (centres unmarked) [IIF-101], for which the IC50 lay in the range of 5 to 10 µM.
On the same count and under the same terms, the same measure for `CC(C)CC1C2C3C=NC1(C(=O)NCc1ccc4ccccc4c1)CC3CN2Cc1ccccc1` (centres unmarked) [IIF-102]: under 5 µM.
In the case of `CC(C)CCN1CC2CC3(C(=O)NCc4ccc(Cl)cc4)N=CC2C1C3CC(C)C` (centres unmarked) [IIF-103], the IC50 lay in the range of 5 to 10 µM.
In the case of `CC(C)CCN1CC2CC3(C(=O)NCc4ccc(F)cc4)N=CC2C1C3CC(C)C` (centres unmarked) [IIF-104], the IC50 fell in the range of 5 to 10 µM.

The same test, now with this note: read-out: anti-rabies virus activity IC50.
With `NC(=O)c1nc(F)c[nH]c1=O` [Compound T-705, Favipiravir], the IC50 was found to be 30 µM.

For the next test, the system named is rabies virus. The conditions noted are these: mouse, in vivo; cited from earlier work.
Take `NC(=O)c1nc(F)c[nH]c1=O` [Compound T-705, Favipiravir]: the “prophylactic effect on rabies virus” value is “significant prophylactic effect was confirmed”.
